Measured values from US10822317B2, “Methods and compositions for wound healing” (QBiotics Limited, priority 2013, dated 2020).

Columns and labels:
[1] = tested on: human neonatal fibroblast cells (NFFs); experiment: Western blot of signalling molecules in human neonatal fibroblasts; type: cell-based; conditions: 10 or 30 ng/mL
Procedure: The Western Blot method was used to identify effects of Compounds 1 and 42 on proteins relevant to would repair and healing in human neonatal fibroblast cells (NFFs). Two studies were conducted. In the first study; NFFs were treated with either 10 or 30 ng Compound 1/mL for 6 or 24 hours, before harvesting and protein extraction. In the second study NFFs were treated individually with 30 ng/mL concentrations of Compounds 1 and 42 respectively for 6 hours. The resulting lysates from both studies were subjected to western blot analysis, and probing with specific antibodies to key signalling molecules involved in wound repair and healing.
The medium from adherent human neonatal fibroblasts grown in 75 cm^2 plates was removed and the cells were washed twice in ice cold PBS. The attached cells were harvested in 10 mL of ice cold PBS using a cell scraper (Costar, Corning) pelleted by centrifugation for 5 min (1,500 rpm, RTemp), resuspended in 1 mL of ice-cold PBS, and transferred to a 1.5 mL microfuge tube.
The cells were collected by centrifugation (13,200 rpm, RTemp, 2 s), the PBS removed and the pellets stored at −20° C. until required.
The frozen pellets were thawed on ice, and resuspended in a volume of cell lysis buffer 3-4 times the volume of the pellet by pipetting up and down. The cell suspension was sonicated 60 s at 4° C. and centrifuged for 20 min (13,200 rpm, 4° C.) and the […] containing the protein transferred to a fresh 1.5 ml microfuge tube. The protein was stored at −20° C.
Protein samples were diluted 1/10 and 1/20 (v/v) in MilliQ water and 10 μL was plated out in duplicate in. a flat-bottomed 96-well plate (Costar®, Corning). Stock solutions of bovine serum albumin (BSA) were prepared at 100, 200, 400, 600, 1,000, and 1,200 μg/mL and 10 μL/well plated out in duplicate and assayed alongside the samples. […] The raw absorbances were read at A590 nm on a microplate reader (VERSAmax, Molecular Devices) and a standard curve produced using SOFTmax PRO software (Molecular Devices). […]

HaCaT cells = experiment: HaCaT proliferation (MTT); type: cell-based, human; set-up: dose or concentration left out as unconfirmed; conditions: 24, 48, 120 and 168 hr; p<0.01
Description: The proliferation experiment assessed the effects of the two compounds on HaCaT proliferation (as measured by MTT) in the culture system at 4 time periods (24, 48, 120 and 168 hr).

In the case of `CC=C(C)C(=O)OC1C(C)C2(O)C(C3OC3(CO)C(O)C3(O)C(=O)C(C)=CC32)C2C(C)(C)C12OC(=O)C(C)CC` (stereo not shown) [Compound 1, 12-tigloyl-13-(2-methylbutanoyl)-6,7-epoxy-4,5,9,12,13,20-hexahydroxy-1-tigliaen-3-one], the “levels of MMP9 (Western blot)” value ([1]; 6 or 24 hours) is reported as “No difference”, the “activation of MEK1/2 and ERK/2 (Western blot)” value ([1]; 6 hours) is reported as “transient activation” and the “activation of MEK1/2 and ERK/2 (Western blot)” value ([1]; 24 hours) is reported as “down-regulation of activation”. The “proliferation of HaCaT cells (MTT) vs control with no compound” value (HaCaT cells) was “increasing proliferation”.
